Measured values reported in ChEMBL document CHEMBL5214898 (J Med Chem, 2021).

Columns and labels:
[1] = Drug uptake in Wistar Han rat plasma 10 mg/kg, po measured after 24 hrs mins by LC-MS/MS analysis; format: ADME, organism-based
[2] = Half life in Wistar Han rat plasma 2 mg/kg, iv by LC-MS/MS analysis; format: ADME, organism-based
[3] = Half life in Beagle dog plasma 1 mg/kg, iv by LC-MS/MS analysis; format: ADME, organism-based, Canis lupus familiaris
[4] = Drug uptake in Beagle dog plasma 2 mg/kg, po measured after 24 hrs mins by LC-MS/MS analysis; format: ADME, organism-based, Canis lupus familiaris
[5] = Tmax in Beagle dog plasma 2 mg/kg, po measured for 15 to 1440 mins by LC-MS/MS analysis; format: ADME, organism-based, Canis lupus familiaris; details: time 15-1440 min
[6] = Clearance in Beagle dog plasma 1 mg/kg, iv measured for 2 to 1440 mins by LC-MS/MS analysis; format: ADME, organism-based, Canis lupus familiaris; details: time 2-1440 min
[7] = Oral bioavailability in Beagle dog plasma 2 mg/kg measured for 15 to 1440 mins by LC-MS/MS analysis relative to control; format: ADME, organism-based, Canis lupus familiaris; details: time 15-1440 min
[8] = Cmax in Wistar Han rat plasma 10 mg/kg, po measured for 15 to 1440 mins by LC-MS/MS analysis; format: ADME, organism-based
[9] = AUC in Beagle dog plasma 2 mg/kg, po measured for 15 to 1440 mins by LC-MS/MS analysis; format: ADME, organism-based, Canis lupus familiaris
[10] = Clearance in Wistar Han rat plasma 2 mg/kg, iv measured for 2 to 1440 mins by LC-MS/MS analysis; format: ADME, organism-based; details: time 2-1440 min
[11] = Oral bioavailability in Wistar Han rat plasma 10 mg/kg measured for 15 to 1440 mins by LC-MS/MS analysis relative to control; format: ADME, organism-based; details: time 15-1440 min
[12] = Tmax in Wistar Han rat plasma 10 mg/kg, po measured for 15 to 1440 mins by LC-MS/MS analysis; format: ADME, organism-based; details: time 15-1440 min
[13] = AUC in Wistar Han rat plasma 10 mg/kg, po measured for 15 to 1440 mins by LC-MS/MS analysis; format: ADME, organism-based
[14] = Cmax in Beagle dog plasma 2 mg/kg, po measured for 15 to 1440 mins by LC-MS/MS analysis; format: ADME, organism-based, Canis lupus familiaris
[15] = Drug uptake in rat assessed as unbound concentration at 10 mg/kg measured after 24 hrs; format: ADME, organism-based; details: in vivo
[16] = Unbound Cmax in rat at 10 mg/kg; format: ADME, organism-based; details: in vivo
[17] = Cmax in rat at 10 mg/kg; format: ADME, organism-based; design: dose 10 mg/kg; details: in vivo
[18] = Drug uptake in rat at 10 mg/kg measured after 24 hrs; format: ADME, organism-based; details: in vivo, read-out: Drug uptake

| concentration at 24 h [1] [nM] | half-life [2] [h] | half-life [3] [h] | concentration at 24 h [4] [nM] | Tmax [5] [h] | clearance [6] [mL/min/kg] | bioavailability [7] [%] | Cmax [8] [nM] | AUC [9] [µM·h] | clearance [10] [mL/min/kg] | bioavailability [11] [%] | Tmax [12] [h] | AUC [13] [µM·h] | Cmax [14] [nM] | Drug uptake(free) [15] [nM] | fCmax [16] [nM] | Cmax [17] [nM] | concentration at 24 h [18] [nM] | Compound |
| --- | --- | --- | --- | --- | --- | --- | --- | --- | --- | --- | --- | --- | --- | --- | --- | --- | --- | --- |
| 7.2 | 5.4 | 91 | 2 | 3 | 2.9 | 11 | 150 | 0.07 | 65 | 25 | 5 | 1.1 | 15 |  |  |  |  | CCC(=O)CCCCC[C@H](NC(=O)[C@H]1CC12CCN(CC)CC2)c1ncc(-c2cc3ccc(C)nc3cc2OC)o1 |
| 3.2 | 13 | 19 | 1.2 | 1.3 | 24 | 4.1 | 97 | 0.1 | 51 | 7.9 | 2.1 | 0.47 | 26 |  |  |  |  | CCC(=O)CCCCC[C@H](NC(=O)[C@H]1CC12CCN(CC)CC2)c1ncc(-c2cc3ccc(C)nc3cc2OC)[nH]1 |
| 3.6 | 5.1 |  |  |  |  |  | 510 |  | 49 | 37 | 4 | 2.3 |  |  |  |  |  | CCC(=O)CCCCC[C@H](NC(=O)[C@H]1CC12CCN(CC)CC2)c1ncc(-c2cc3cn(C)nc3cc2OC)o1 |
| 1 | 24 |  |  |  |  |  | 9 |  | 60 | 0.6 | 2.1 | 0.02 |  |  |  |  |  | CCC(=O)CCCCC[C@H](NC(=O)[C@H]1CC12CCN(C(C)C)CC2)c1ncc(-c2cc3ccc(C)nc3cc2OC)[nH]1 |
| 8.9 | 33 |  |  |  |  |  | 170 |  | 12 | 2.5 | 5 | 0.98 |  |  |  |  |  | CCC(=O)CCCCC[C@H](NC(=O)[C@H]1CC12CCN(C)CC2)c1ncc(-c2cc3ccc(C)nc3cc2OC)[nH]1 |
|  |  |  |  |  |  |  |  |  |  |  |  |  |  | 0.11 | 7.5 | 627 | 9 | CCC(=O)CCCCC[C@H](NC(=O)[C@H]1CC12CCN(C)CC2)c1ncc(-c2cc3ccccc3nc2OC)[nH]1 |
|  | 2.9 |  |  |  |  |  | 4 |  | 45 | 0.1 | 0.3 | 0.01 |  |  |  |  |  | CCC(=O)CCCCC[C@H](NC(=O)[C@H]1CC12CCN(C)CC2)c1ncc(-c2ccc3nc(C)ccc3c2)[nH]1 |
| 9.2 | 3.9 |  |  |  |  |  | 2100 |  | 6 | 20 | 3 | 9.7 |  |  |  |  |  | CCC(=O)CCCCC[C@H](NC(=O)[C@H]1CC12CCN(CC)CC2)c1ncc(-c2cc3cccnc3nc2OC)o1 |
| 1 | 1.9 |  |  |  |  |  | 63 |  | 71 | 6.9 | 2 | 0.3 |  |  |  |  |  | CCC(=O)CCCCC[C@H](NC(=O)[C@H]1CC12CCN(C)CC2)c1ncc(-c2cc3ccc(C)nc3cc2F)o1 |
| 2.2 | 6.5 |  |  |  |  |  | 120 |  | 100 | 22 | 5 | 0.6 |  |  |  |  |  | CCC(=O)CCCCC[C@H](NC(=O)[C@H]1CC12CCN(CC)CC2)c1ncc(-c2cc3ccn(CC)c(=O)c3cc2OC)o1 |
| 1 | 9.5 |  |  |  |  |  | 20 |  | 61 | 2 | 2.1 | 0.06 |  |  |  |  |  | CCC(=O)CCCCC[C@H](NC(=O)[C@H]1CC12CCN(C)CC2)c1ncc(-c2cc3cccnc3cc2OC)[nH]1 |
| 28 | 4.8 | 43 | 3.3 | 3 | 6 | 42 | 2500 | 0.57 | 25 | 78 | 4 | 10 | 72 |  |  |  |  | CCC(=O)CCCCC[C@H](NC(=O)[C@H]1CC12CCN(C)CC2)c1ncc(-c2cc3ccc(C)nc3cc2OC)o1 |
